Test results: patent US6355481B1, “Hybridoma cell line and monoclonal antibody for huntingtin protein” (Emory University, priority 1999, dated 2002)

Assays:
parental PC12 cells [1] = experiment: Neurite outgrowth assay, parental PC12 cells; type: cell-based, rat; conditions: for neurite outgrowth promoted by growth factor: control/parental PC12 cells, IL-6 20 ng/ml, CNTF 20 ng/ml, EGF 10 ng/ml, bFGF 20 ng/ml
Experimental: To evaluate neurite outgrowth, we plated the cells at low density (2×10^4 Cells/cm^2) onto six-well plates. Cell cultures were treated with NGF (100 ng/ml) for 48 hr or with staurosporine (50-100 nM) and EGF (10 ng/ml) for 16 hr and were fixed with 4% paraformaldehyde in PBS for 15 min. After several washes with PBS, cells with neurites exceeding the cell diameter were counted using an inverted microscope (Olympus Optical CK2, Tokyo, Japan). At the same time, five to seven images (10×) were captured by a Pixera camera, and the percentage of cells with neurites was confirmed by analyzing these images. On average, 500-800 cells were counted for each group.

150Q cells [2] = experiment: Cell viability (MTS) assay, 150Q cells; type: cell-based, rat
Experimental: Cell viability and apoptosis assays. […] PC12 cells were plated in 96-well plates at a density of 10,000 cells/well and maintained 16-24 hr in complete medium. […] Leptomycin B (LMB; 10 nM) [provided by Dr. Minoru Yoshida (Kudo et al. (1997) J. Biol. […] After drug treatment, 20 μl of MTS reagent (2.1 mg/ml) was added to each well. The cells were then incubated for 30-45 min at 37° C. in a 5% CO2 incubator. The reaction was stopped by adding 25 μl of 10% SDS. The plates were read with a microplate reader (SPECTRAmax Plus; Molecular Devices, Palo Alto, Calif.) at 490 nm. Each data point was obtained using a triplet-well assay.

[3] = system: PC12 cells expressing the 150Q mutant HD exon-1 protein (150Q cells); experiment: Neurite outgrowth assay, 150Q cells; type: cell-based, rat
Text: (§1) Huntingtin constructs, transfection, and selection of stably transfected cell lines. A partial huntingtin CDNA containing 20 (20Q) or 150 CAG repeats was isolated from a lambda phage DNA that contains exon-1 of the human HD gene [provided by Dr. Gillian Bates (Mangiarini et al. (1996) Cell 87:493-506)]. The N-terminal huntingtin fragments encoded by these cDNAs were expressed using the pCIS expression vector that carries a cytomegalovirus promoter (Li et al. (1998) Hum. Molec. Genet. 7:777-782). The pCDNA3 vector, which carries the G418 resistance gene (Invitrogen, San Diego, Calif.), was cotransfected with the pCIS-huntingtin constructs. Subconfluent PC12 cells in 80 mm dishes were transfected with 7 μg of plasmid DNA and 10 μg/ml lipofectAMINE (Life Technologies) per dish. The transfected cells were then selected in the presence of 500 μg/ml G418 in DM EM plus 5% fetal bovine serum and 10% horse serum. Selected G418-resistant cells were subcloned and maintained in the same conditioned medium until each cell line contained homogenous transfected cells. […]
(§2) To evaluate neurite outgrowth, we plated the cells at low density (2×10^4 Cells/cm^2) onto six-well plates. […] After several washes with PBS, cells with neurites exceeding the cell diameter were counted using an inverted microscope (Olympus Optical CK2, Tokyo, Japan). […] On average, 500-800 cells were counted for each group.

150Q cells [4] = experiment: Trypan blue exclusion cell death assay, 150Q cells; type: cell-based, rat
Experimental: (§3) Cell death rate and neurite outgrowth assays. Cells were plated at a standard density (4×10^4/cm^2) in six-well plates with DMEM supplemented with 5% FBS and 10% horse serum. Cultured cells were harvested, centrifuged at 1000 rpm for 5 min, and resuspended in PBS containing 0.4% trypan blue. The cells were incubated in the trypan blue solution for 10 min and transferred to a hemocytometer, and the number of viable (phase bright) and nonviable (blue) cells was recorded. For each sample, cell counts in four corner fields of the hemocytometer were averaged.

[5] = system: PC12 cells expressing the 20Q HD exon-1 protein (20Q cells); experiment: Neurite outgrowth assay, 20Q cells; type: cell-based, rat; conditions: IL-6 20 ng/ml
Text: as §1, §2

parental PC12 cells [6] = experiment: Trypan blue exclusion cell death assay, parental PC12 cells; type: cell-based, rat; conditions: 100 nm staurosporine
Experimental: as §3

parental PC12 cells [7] = conditions: PC12 cells (Yao et al. 1997); cited from earlier work
20Q cells [8] = experiment: Cell viability (MTS) assay, 20Q cells; type: cell-based, rat; conditions: 20Q cells vs parental PC12 cells, >250 nM staurosporine
Experimental: Cell viability was determined by a modified 3-(4,5-dimethylthiazol-2-yl)-2,5-diphenyltetrazohum bromide (MTS) assay (Cell Titer 96; Promega), which is based on the conversion of tetrazolium salt 3-(4,5-dimethylthiazol-2-yl)-5-(3-carboxymethoxyphenyl)-2-(4-sulfophenyl) 2-H-tetrazolium by mitochondrial dehydrogenase to a formazan product, as measured at an absorbance of 490 nm. PC12 cells were plated in 96-well plates at a density of 10,000 cells/well and maintained 16-24 hr in complete medium. Cells were then changed to medium containing 1% FBS in the absence or presence of staurosporine at different concentrations. Staurosporine was dissolved in 2 mM dimethylsulfoxide (DMSO) and diluted in the medium at various concentrations. […] After drug treatment, 20 μl of MTS reagent (2.1 mg/ml) was added to each well. The cells were then incubated for 30-45 min at 37° C. in a 5% CO2 incubator. The reaction was stopped by adding 25 μl of 10% SDS. The plates were read with a microplate reader (SPECTRAmax Plus; Molecular Devices, Palo Alto, Calif.) at 490 nm. Each data point was obtained using a triplet-well assay.

150Q cells [9] = experiment: EM48 immunofluorescence and Hoechst staining after LMB, 150Q cells; type: cell-based, rat; conditions: LMB 10 nM
Experimental: (§4) Immunofluorescent labeling of cultured cells. Transfected cells grown in chamber slides were fixed in 4% paraformaldehyde in PBS for 15 min, permeabilized with 0.4% Triton X-100 in PBS for 30 min, blocked with 5% normal goat serum (NGS) in PBS for 1 hr, and incubated with primary antibodies in 2% NGS and PBS overnight at 4° C. After several washes, the cells were incubated with secondary antibodies conjugated with either FITC or rhodamine (Jackson ImmunoResearch, West Grove, Pa.). Hoechst dye (1 μg/ml) was used to label the nuclei. A Zeiss fluorescent microscope (Axioskop 2) and video system (Dage-MTI, Michigan City, Ind.) were used to capture images. The captured images were stored and processed using Adobe Photoshop software. Cell viability and apoptosis assays. […] PC12 cells were plated in 96-well plates at a density of 10,000 cells/well and maintained 16-24 hr in complete medium. […] Leptomycin B (LMB; 10 nM) [provided by Dr. Minoru Yoshida (Kudo et al. (1997) J. Biol. Chem. 272:29742-29751)] was added to the medium for 12-16 hr. After drug treatment, 20 μl of MTS reagent (2.1 mg/ml) was added to each well. The cells were then incubated for 30-45 min at 37° C. in a 5% CO2 incubator. The reaction was stopped by adding 25 μl of 10% SDS. The plates were read with a microplate reader (SPECTRAmax Plus; Molecular Devices, Palo Alto, Calif.) at 490 nm. […]

20Q cells [10] = experiment: EM48 immunofluorescence and Hoechst staining after LMB, 20Q cells; type: cell-based, rat; conditions: LMB 10 nM
Experimental: as §4

[11] = 150Q cells treated with EGF and staurosporine together

## EGF: epidermal growth factor (NSDSECPLSHDGYCLHDGVCMYIEALDKYACNCVVGYIGERCQYRDLKWWELR; Epidermal growth factor; UniProt P01133 971-1023, looked up)
Parental PC12 cells [1]
  neurite outgrowth promoted by growth factor: very weak effect
150Q cells [2]; 150Q cells, EGF 10 ng/ml in the presence of 10-100 nM staurosporine
  effect of EGF on cell viability: significantly increased cell viability
[3]; [11]
  effect of EGF on neurite outgrowth: significantly enhanced neurite outgrowth
150Q cells [4]; [11]
  effect of EGF on cell death: reduced cell death

## IL-6: interleukin-6
Parental PC12 cells [1]
  neurite outgrowth promoted by growth factor: promoted neurite outgrowth
[5]
  neurite outgrowth promoted by growth factor: promoted neurite outgrowth

## CN[C@@H]1C[C@H]2O[C@@](C)([C@@H]1OC)n1c3ccccc3c3c4c(c5c6ccccc6n2c5c31)C(=O)NC4 [staurosporine]
Parental PC12 cells [6]
  cell death with staurosporine: without displaying significant cell death
Parental PC12 cells [1]; parental PC12 cells, 100 nm staurosporine
  neurite outgrowth with staurosporine: grew neurites
150Q cells [2]; 150Q cells vs 20Q or parental PC12 cells, 10-125 nM staurosporine
  susceptibility to staurosporine (cell viability): more susceptible
Parental PC12 cells [7]
  time to initiation of neurite outgrowth: 4 to 6 h
[3]; 150Q cells, 100 nm staurosporine, living cells
  neurite outgrowth with staurosporine: some of the living 150Q cells displayed neurite outgrowth
20Q cells [8]
  cell killing by higher doses of staurosporine: killed more 20Q cells than parental PC12 cells
150Q cells [4]; 150Q cells, 100 nm staurosporine
  cell death with staurosporine: killed a significant number of 150Q cells

## CCC(=C/[C@H](C)C/C=C/C(C)=C/[C@@H](C)C(=O)[C@@H](C)[C@H](O)[C@@H](C)C/C(C)=C/C(=O)O)/C=C/[C@@H]1OC(=O)C=C[C@@H]1C [LMB, Leptomycin B]
150Q cells [2]; 150Q cells vs control cells, LMB 10 nM
  cell viability after exposure to LMB: more 150Q cells than control cells were dying
150Q cells [9]
  DNA fragmentation after LMB: more 150Q cells showed DNA fragmentation
150Q cells [9]; vs without LMB
  intranuclear EM48 labeling after LMB: more 150Q cells had intense intranuclear EM48 labeling
20Q cells [10]
  DNA fragmentation after LMB: very few LMB-treated 20Q cells had DNA fragmentation
  nuclear labeling after LMB: increased the nuclear labeling of some 20Q cells
